The target of data set [1] is T1, aminopeptidase of L. lactis subsp. cremoris Wg2 (Lactococcus lactis subsp. cremoris, UniProt P0C2T8).
T1 sequence (P0C2T8 1-846): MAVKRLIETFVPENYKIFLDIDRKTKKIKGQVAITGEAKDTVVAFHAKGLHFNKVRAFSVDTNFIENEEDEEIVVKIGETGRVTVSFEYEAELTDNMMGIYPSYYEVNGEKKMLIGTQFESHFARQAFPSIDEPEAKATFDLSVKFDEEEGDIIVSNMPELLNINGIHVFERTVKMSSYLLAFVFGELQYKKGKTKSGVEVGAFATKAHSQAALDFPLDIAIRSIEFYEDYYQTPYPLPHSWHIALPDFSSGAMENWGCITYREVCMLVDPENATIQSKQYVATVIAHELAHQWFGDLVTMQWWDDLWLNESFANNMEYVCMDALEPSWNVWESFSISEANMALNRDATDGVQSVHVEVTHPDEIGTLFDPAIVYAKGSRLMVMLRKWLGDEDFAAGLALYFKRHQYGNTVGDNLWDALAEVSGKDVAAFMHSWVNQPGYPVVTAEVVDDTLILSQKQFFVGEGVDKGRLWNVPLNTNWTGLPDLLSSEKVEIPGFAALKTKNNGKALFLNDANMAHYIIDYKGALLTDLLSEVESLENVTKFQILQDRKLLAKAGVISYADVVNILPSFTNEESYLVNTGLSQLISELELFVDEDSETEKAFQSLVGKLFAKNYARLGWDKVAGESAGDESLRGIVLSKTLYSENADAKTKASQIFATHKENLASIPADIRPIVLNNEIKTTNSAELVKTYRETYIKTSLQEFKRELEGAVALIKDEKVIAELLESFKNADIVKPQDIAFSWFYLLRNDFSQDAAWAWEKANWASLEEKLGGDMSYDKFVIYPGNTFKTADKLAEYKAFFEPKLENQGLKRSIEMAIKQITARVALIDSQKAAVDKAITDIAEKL
In kind it is biochemical.

Data set [2] addresses T1, aminopeptidase of L. lactis subsp. cremoris Wg2. The experiment in a line: Hydrolysis of lysyl-p-nitroanilide / X-p-nitroanilide substrates (release of p-nitroanilide at 410 nm). In kind it is biochemical. The arrangement: The cell extract obtained after sonication and centrifugation of L. lactis subsp. cremoris Wg2; endogenous in cells; host or cells: Proteinase-negative variant of Lactococcus lactis subsp. cremoris Wg2; Enzyme purified from the cell-free extract by DEAE-Sephacel, phenyl-Sepharose, Sephadex G-100 SF and MA7P HPLC; not recombinant. The note with it: relative hydrolysis velocity of X-p-nitroanilide substrates. As to the method: Hydrolysis of lysyl-p-nitroanilide was determined by the method of Exterkate, Neth. Milk Diary J. 29, 1975, 303-318. A 2 mM solution of lysyl-p-nitroanilide was incubated for 15 minutes with a suitable amount of enzyme. The reaction was stopped by adding acetic acid up to a final concentration of 10%, and the amount of p-nitroanilide was measured at 410 nm (Hitachi U-1100 spectrophotometer).
All measurements of enzyme activities were carried out at 30°C in 20 mM HEPES pH 7, unless specified.
The highest activity was found for lysyl-p-nitroanilide and to a lesser extent for leucyl-p-nitroanilide. […] The affinity of the enzyme for lysyl-p-nitroanilide was determined.

The target is the same in data set [3]. The data set is described as above. The note with it: for Relative activity (%): relative hydrolysis velocity of X-p-nitroanilide substrates.
Data set [4] has the same target. In kind it is biochemical. This is another data set of the same source.
Data set [5] shares this target. As to the kind of experiment: Hydrolysis of peptides detected by thin-layer chromatography (TLC). In kind it is biochemical. The arrangement: The cell extract obtained after sonication and centrifugation of L. lactis subsp. cremoris Wg2; endogenous in cells; host or cells: Proteinase-negative variant of Lactococcus lactis subsp. cremoris Wg2; Enzyme purified from the cell-free extract by DEAE-Sephacel, phenyl-Sepharose, Sephadex G-100 SF and MA7P HPLC; not recombinant; key to Activity: + : hydrolysis; - : no hydrolysis to be observed. The note with it: for hydrolysis of peptides (in words): peptide as substrate of the aminopeptidase; for Activity: substrate specificity, 2 mM substrate, 20 mM HEPES pH 7, 60 min. at 30°C, TLC.

Substrate in data set [6]: NCCCCC(N)C(=O)Nc1ccc([N+](=O)[O-])cc1
As to the kind of experiment: purified protein, by the assay type. The note with it: other: Lineweaver-Burk plot, substrate of the aminopeptidase; pH 7.0; 30.0 °C.

Entries after “also recorded” stand apart in the source; their conditions may differ. Where a SMILES comes first, the peptide text is derived from it. The star is where a group is joined. pNA = O=[N+]([O-])c1ccc(N*)cc1

As usually defined, the Km is the substrate concentration at which the rate is half of its maximum. The term kcat denotes the number of substrate molecules converted per active site and unit of time at saturation.

As for `c1cnc2c(c1)ccc1cccnc12` [1,10-phenanthroline], the “inhibition of the enzyme activity by chelating agents (in words)” value in data set [1] is recorded as “complete inhibition; also recorded: sensitivity”. For `C[C@H](N)C(=O)N1CCC[C@H]1C(=O)Nc1ccc([N+](=O)[O-])cc1` [Ala-Pro-pNA] (H-Ala-Pro-pNA), the “Relative activity (%)” value in data set [2] worked out at 4%. `CC(N)C(=O)Nc1ccc([N+](=O)[O-])cc1` (stereo not drawn) [Ala-pNA]: in data set [3], the “Relative activity (%)” value is 4%. On to `[Ca+2]` [Ca⁺⁺], for which, in data set [1], the “inhibitory effect of divalent cations on the enzyme activity (in words)” value is “no inhibitory effect at all” and the “restoration of the activity of the enzyme treated with 1,10-phenanthroline (in words)” value is given as “could not restore the enzyme activity”. As for `OC(CS)C(O)CS` (stereo not drawn) [DTT, dithiotreitol], the “effect of chemical reagents on the aminopeptidase activity (in words)” value (from here on “effect of chemical reagents”) in data set [1] is given as “no inhibitory effect; also recorded: insensitive”. Besides, the “inactivating effects of pCMB and mersalyl undone by reducing agent (in words)” value in data set [4] is given as “completely undone”. Regarding `O=C(O)CN(CCN(CC(=O)O)CC(=O)O)CC(=O)O` [EDTA], in data set [1], the “inhibition of the enzyme activity by chelating agents (in words)” value was “complete inhibition; also recorded: sensitivity”.

As for `N[C@@H](CCC(=O)O)C(=O)Nc1ccc([N+](=O)[O-])cc1` [Glu-pNA], in data set [3], the “Relative activity (%)” value is recorded as under 1%. The same measure, in the same setting: to `NCC(=O)Nc1ccc([N+](=O)[O-])cc1` [Gly-pNA] belongs under 1%. Turning to `CC(C)CC(N)C(=O)Nc1ccc([N+](=O)[O-])cc1` (stereo not drawn) [Leu-pNA, leucyl-p-nitroanilide], in data set [3], the “hydrolysis of p-nitroanilide substrates (in words)” value is on record as “hydrolyses” and the “Relative activity (%)” value is 24%. As for `NCCCCC(N)C(=O)Nc1ccc([N+](=O)[O-])cc1` (stereo not drawn) [Lys-pNA, lysyl-p-nitroanilide], in data set [3], the “hydrolysis of p-nitroanilide substrates (in words)” value was “hydrolyses” and the “Relative activity (%)” value amounted to 100%. Besides, the “maximum peptide hydrolysis velocity” value in data set [3] (Lineweaver-Burk plot) is on record as 1 millimol/min./mg.

With `CSCCC(N)C(=O)Nc1ccc([N+](=O)[O-])cc1` (stereo not drawn) [Met-pNA, methionyl-p-nitroanilide], in data set [3], the “Relative activity (%)” value came out at 8%.

On to `[Mg+2]` [Mg⁺⁺], for which, in data set [1], the “inhibitory effect of divalent cations on the enzyme activity (in words)” value is given as “no inhibitory effect at all” and the “restoration of the activity of the enzyme treated with 1,10-phenanthroline (in words)” value is listed as “could not restore the enzyme activity”.

Regarding `CCN1C(=O)C=CC1=O` [NEM, N-ethylmaleimide], the “effect of chemical reagents” value in data set [1] is recorded as “inhibitory effect; also recorded: strong inhibition”.

Turning to `NC(Cc1ccccc1)C(=O)Nc1ccc([N+](=O)[O-])cc1` (stereo not drawn) [Phe-pNA], the “Relative activity (%)” value in data set [3] was 4%. As for `O=C(Nc1ccc([N+](=O)[O-])cc1)C1CCCN1` (stereo not drawn) [Pro-pNA], the “Relative activity (%)” value in data set [3] is under 1%. With `NC(=O)CI` [iodoacetamide], in data set [1], the “effect of chemical reagents” value was “inhibitory effect; also recorded: strong inhibition”. Still for that read-out and setting: as for `COC(CNC(=O)c1ccccc1OCC(=O)O)[CH2][Hg][OH]` (stereo not drawn) [mersalyl, O-(3-hydroxymercuri-2-methoxypropyl) carbamyl phenoxyacetate], the entry is “completely inhibited; also recorded: strong inhibition”; as for `O=C(O)c1cc[c]([Hg][Cl])cc1` [pCMB, p-chloromercuribenzoate], “completely inhibited; also recorded: strong inhibition”; as for `O=S(=O)(O)c1cc[c]([Hg][Cl])cc1` [pCMBS, p-chloromercuribenzenesulphonate], “completely inhibited; also recorded: strong inhibition”.

Take `OCCS` [β-mercaptoethanol]: the “effect of chemical reagents” value in data set [1] is given as “no inhibitory effect; also recorded: insensitive”. For the same molecule, in data set [4], the “inactivating effects of pCMB and mersalyl undone by reducing agent (in words)” value is “completely undone”. On to “Bradykinin (RPPGFSPFR; Bradykinin; UniProt P01042 381-389, looked up)”, for which, in data set [5], the “hydrolysis of peptides (in words)” value is on record as “hydrolyses; also recorded: can also act on” and the Activity result is “+”. Taken in the same sequence, the figures for Leu-Leu were “hydrolyses” and “+”. As to PMSF, the “effect of chemical reagents” value in data set [1] is listed as “insensitive”. As for Phe-Leu, in data set [5], the “hydrolysis of peptides (in words)” value is “does not prove capable of significant hydrolysis” and the Activity result was “-”.

Consider Phe-Val, for which, in data set [5], the “hydrolysis of peptides (in words)” value was “does not prove capable of significant hydrolysis” and the Activity result is given as “-”. alanyl-alanine [Ala-Ala]: the “hydrolysis of peptides (in words)” value in data set [5] (listed as ala-ala) was “does not prove capable of significant hydrolysis”; in data set [5] (listed as alanyl-alanine), “not”. Further, in data set [5], the Activity entry is “-”.

For the molecule benzoyl-glycyl-lysine, in data set [5], the “hydrolysis of peptides (in words)” value is recorded as “does not seem capable of hydrolysis”. As to carbobenzoxy-prolylalanine, the “hydrolysis of peptides (in words)” value in data set [5] is “does not seem capable of hydrolysis”. The same measure, in the same setting: to carboxybenzoxy-phenylalanyl-alanine belongs “does not seem capable of hydrolysis”.

B1: aminopeptidase of L. lactis subsp. cremoris Wg2 (Lactococcus cremoris) (protein)
chain: MAVKRLIETFVPENYKIFLDIDRKTKKIKGQVAITGEAKDTVVAFHAKGLHFNKVRAFSVDTNFIENEEDEEIVVKIGETGRVTVSFEYEAELTDNMMGIYPSYYEVNGEKKMLIGTQFESHFARQAFPSIDEPEAKATFDLSVKFDEEEGDIIVSNMPELLNINGIHVFERTVKMSSYLLAFVFGELQYKKGKTKSGVEVGAFATKAHSQAALDFPLDIAIRSIEFYEDYYQTPYPLPHSWHIALPDFSSGAMENWGCITYREVCMLVDPENATIQSKQYVATVIAHELAHQWFGDLVTMQWWDDLWLNESFANNMEYVCMDALEPSWNVWESFSISEANMALNRDATDGVQSVHVEVTHPDEIGTLFDPAIVYAKGSRLMVMLRKWLGDEDFAAGLALYFKRHQYGNTVGDNLWDALAEVSGKDVAAFMHSWVNQPGYPVVTAEVVDDTLILSQKQFFVGEGVDKGRLWNVPLNTNWTGLPDLLSSEKVEIPGFAALKTKNNGKALFLNDANMAHYIIDYKGALLTDLLSEVESLENVTKFQILQDRKLLAKAGVISYADVVNILPSFTNEESYLVNTGLSQLISELELFVDEDSETEKAFQSLVGKLFAKNYARLGWDKVAGESAGDESLRGIVLSKTLYSENADAKTKASQIFATHKENLASIPADIRPIVLNNEIKTTNSAELVKTYRETYIKTSLQEFKRELEGAVALIKDEKVIAELLESFKNADIVKPQDIAFSWFYLLRNDFSQDAAWAWEKANWASLEEKLGGDMSYDKFVIYPGNTFKTADKLAEYKAFFEPKLENQGLKRSIEMAIKQITARVALIDSQKAAVDKAITDIAEKL
For the molecule B1, in data set [6], the Km was 550 µM, the Vmax was 1000 µmol/min. mg protein and the kcat came to 1580 s⁻¹.
